Key:
[1] = system: human prostate cancer cell line DU145; experiment: Cytostatic activity in vitro, prostate cancer DU145; assay type: cell-based; details: 72 h continuous exposure
Description: (§1) Table 5 presents activity in vitro of anthrapiridazone derivatives towards three cell lines of prostate cancer, naturally multidrug resistant, in comparison with references doxorubicin, mitoxantrone and taxol.

[2] = system: human promyelocytic leukemia cell line HL-60; experiment: Cytostatic activity in vitro, HL-60 sensitive line; assay type: cell-based; details: 50% inhibition of cell growth after 72 h continuous exposure; read-out: HL60 IC50
Description: (§2) Tables 3 and 4 show cytostatic activity in vitro of 2,6-disubstituted and 2- or 6-monosubstituted (Tab.3), and of 2,5-disubstituted-(Tab.-4) tetracyclic anthrapyridazone derivatives using leukemia cell line HL-60 and the resistant cell sublines with resistance induced by vincristine (MDR-1) or doxorubicin (MRP). Activity of compounds is differentiated depending on their structure, but in all cases resistance indexes are more advantageous in comparison with reference compounds: doxorubicin and mitoxantrone.

HL60/DX [3] = experiment: Cytostatic activity in vitro, doxorubicin-induced resistant subline (MRP); assay type: cell-based, human; details: for IC50: 72 h continuous exposure; for RI resistance index HL60/DX: IC50(resistant cells)/IC50(sensitive cells), HL60/DX vs HL60, 72 h
Description: as §2

[4] = system: human prostate cancer cell line LNCaP; experiment: Cytostatic activity in vitro, prostate cancer LNCaP; assay type: cell-based; details: 72 h continuous exposure
Description: as §1

[5] = system: human prostate cancer cell line PC3; experiment: Cytostatic activity in vitro, prostate cancer PC3; assay type: cell-based; details: 72 h continuous exposure
Description: as §1

CT-DNA = experiment: Interaction with isolated CT-DNA, fluorescence competition with ethidium bromide; assay type: binding; details: for IC50: 50% decrease in fluorescence intensity of DNA-bromide ethydine complex; for Kapp relative constant of DNA-compound bonding: Kapp = (1.26/C50) × KEtBr, KEtBr = 10^7M
Description: It could be supposed that this property explains cytostatic activity of compounds. In Table 9 there are presented quantitative data on the affinity to DNA of tested compounds using the fluorescence method and competitive affinity to DNA of bromine ethydine and tested compounds.

HL60/VINC [6] = experiment: Cytostatic activity in vitro, vincristine-induced resistant subline (MDR-1); assay type: cell-based, human; details: for IC50: 72 h continuous exposure; for RI resistance index HL60/VINC: IC50(resistant cells)/IC50(sensitive cells), HL60/VINC vs HL60, 72 h
Description: as §2

MCF7/DX = experiment: Cytostatic activity in vitro, resistant breast cancer subline MCF7/DX (MDR-1); assay type: cell-based, human
Description: (§3) It should be mentioned that resistance index is above one order of magnitude better in comparison with doxorubicin and mitoxantrone.

HL60/VINC [7] = experiment: Substrate properties: activity against HL60/VINC in the presence of cyclosporine A (MDR-1 pump inhibitor); assay type: cell-based, human; details: FIG. 2
Description: FIG. 2 shoes experimentally determined substrate properties of selected antgraoyridazone derivatives vs. Doxorubicin and Mitroxantrone. Activity in vitro against human promyelacytic leykemia cell line HL60/VINC in the presence of cyclosporine A (MDR-1 pump inhibitor).

HT29/MIT = experiment: Cytostatic activity in vitro, mitoxantrone-induced resistant subline HT29/MIT; assay type: cell-based, human
Description: (§4) Table 7 presents activity in vitro of selected anthrapyridazone derivatives according to the invention towards sensitive and resistant (MDR-1 type) cell line of human colon adenocarcinoma with resistance induced by mitoxantrone.

HL60/DX [8] = experiment: Substrate properties: activity against HL60/DX in the presence of BSO (MRP pump inhibitor); assay type: cell-based, human; details: FIG. 3
Description: Activity in vitro against human promyelolytic leukemia HL60/DX in the presence of D-L-buthionine-(S,R)-sulphoximine (BSO), MRP pump inhibitor.

[9] = system: human colon adenocarcinoma HT29; experiment: Cytostatic activity in vitro, colon adenocarcinoma HT29; assay type: cell-based; details: 72 h continuous exposure
Description: as §4

[10] = system: human breast cancer cell line MCF7; experiment: Cytostatic activity in vitro, breast cancer MCF7; assay type: cell-based; details: 72 h continuous exposure
Description: as §3

Compound	IC50 [1]	IC50 [2]	IC50 (HL60/DX [3])	IC50 [4]	IC50 [5]	IC50 (CT-DNA)	IC50 (HL60/VINC [6])	IC50 (MCF7/DX; 72 h continuous exposure)	IC50 [9]	IC50 [10]	RI resistance index HL60/DX (HL60/DX [3])	Kapp relative constant of DNA-compound bonding (CT-DNA)	RI resistance index HL60/VINC (HL60/VINC [6])	RI resistance index MCF7/DX (MCF7/DX; IC50(resistant cells)/IC50(sensitive cells), MCF7/DX vs MCF7)	Effect of blocking MDR-1 pump with cyclosporine A (CSA) on cytostatic activity (HL60/VINC [7])	IC50 (HT29/MIT; 72 h continuous exposure)	RI resistance index HT29/MIT (HT29/MIT; IC50(resistant cells)/IC50(sensitive cells), HT29/MIT vs HT29)	Effect of MRP protein inhibitor (BSO) on cytostatic activity (HL60/DX [8])
CN(C)CCn1nc2c3c(c(NCCNCCO)ccc3c1=O)C(=O)c1ccccc1-2 [Compound C-165, 2-[2-(Dimethylamino)ethyl]-6-[2-(2-aminoethylamino)ethanolo]-2,7-dihydro-3H-dibenzo[de,h]cynnoline-3,7-dione]	14.3 ± 3.3 nM	2.1 ± 0.4 nM	706 ± 57 nM	8.1 ± 1 nM	51.6 ± 12.4 nM	370 ± 80 nM	30.8 ± 4 nM				336.2	3.44e+07 M⁻¹	14.7					
CCNCCNc1ccc2c(=O)n(CCN(C)C)nc3c2c1C(=O)c1ccccc1-3 [Compound C-180, 2-[2-(Dimethylamino)ethyl]-6-{[2-(ethylamino)ethyl]amino}-2,7-dihydro-3H-dibenzo[de,h]cynnoline-3,7dione]	22.6 ± 5.2 nM	2.2 ± 0.1 nM	364 ± 36 nM	11 ± 1.4 nM	75.2 ± 16.2 nM	280 ± 50 nM	8.7 ± 0.4 nM				165.5	4.53e+07 M⁻¹	4.0					
CN(C)CCn1nc2c3c(c(NCCN)ccc3c1=O)C(=O)c1ccccc1-2 [BS-121, 2-[2-(Dimethylamino)ethyl]-6-[2-(aminoethyl)amino)-2,7-dihydro-3H-dibenzo[de,h]cynnoline-3,7-dione]	11.3 ± 2.6 nM	1.3 ± 0.1 nM	564 ± 72 nM	5.5 ± 0.7 nM	37.6 ± 8.1 nM	260 ± 20 nM	14.2 ± 1.7 nM	45.3 ± 8.1 nM	9.7 ± 1 nM	39.6 ± 0.8 nM	433.8	4.83e+07 M⁻¹	10.9	1.1	does not essentially affect the cytostatic activity	39.4 ± 4.3 nM	4.1	only partially
CN(C)CCCNc1ccc2c(=O)[nH]nc3c2c1C(=O)c1ccccc1-3 [Compound C-131, 6-[(3-Dimethylamino)propyl]amino-3H-dibenzo[de,h]cynnoline-3,7-dione]	1480 ± 127 nM	1150 ± 244 nM	4470 ± 428 nM	927 ± 92 nM	2830 ± 234 nM	1630 ± 120 nM	1010 ± 51 nM				3.9	7.7e+06 M⁻¹	0.9					

Further lines, with some results ahead:

IC50 [1]	IC50 [2]	IC50 (HL60/DX [3])	IC50 [4]	IC50 [5]	IC50 (CT-DNA)	IC50 (HL60/VINC [6])	IC50 (MCF7/DX; 72 h continuous exposure)	IC50 [9]	IC50 [10]	Compound	RI resistance index HL60/DX (HL60/DX [3])	Kapp relative constant of DNA-compound bonding (CT-DNA)	RI resistance index HL60/VINC (HL60/VINC [6])	RI resistance index MCF7/DX (MCF7/DX; IC50(resistant cells)/IC50(sensitive cells), MCF7/DX vs MCF7)	Effect of blocking MDR-1 pump with cyclosporine A (CSA) on cytostatic activity (HL60/VINC [7])	IC50 (HT29/MIT; 72 h continuous exposure)	RI resistance index HT29/MIT (HT29/MIT; IC50(resistant cells)/IC50(sensitive cells), HT29/MIT vs HT29)	Effect of MRP protein inhibitor (BSO) on cytostatic activity (HL60/DX [8])
169 ± 47 nM	113 ± 7 nM	2680 ± 768 nM	237 ± 45 nM	947 ± 37 nM	2640 ± 290 nM	947 ± 111 nM				CN(C)CCn1nc2c3c(c(NCC(=O)N(C)C)ccc3c1=O)C(=O)c1ccccc1-2 [PDZ-12, 2-[2-(Dimethylamino)ethyl]-6-[(N,N-dimethylacetamido)amino]-2,7-dihydro-3H-dibenzo[de,h]cynnoline-3,7-dione]	23.7	4.8e+06 M⁻¹	8.4					
32.8 ± 1.4 nM	28 ± 6 nM	870 ± 173 nM	44.8 ± 5.6 nM	85.5 ± 10.1 nM	990 ± 10 nM	79 ± 7 nM				CC(=O)Nc1ccc2c(=O)n(CCN(C)C)nc3c2c1C(=O)c1ccccc1-3 [PDZ-14, 2-[2-(Dimethylamino)ethyl]-6-(acetylamino)-2,7-dihydro-3H-dibenzo[de,h]cynnoline-3,7-dione]	31.1	1.27e+07 M⁻¹	2.8					
344 ± 43 nM	98 ± 19 nM	2870 ± 447 nM	166 ± 40 nM	606 ± 38 nM	460 ± 80 nM	477 ± 39 nM				O=C1c2ccccc2-c2nn(CCN3CCCCC3)c(=O)c3ccc(NCCNCc4ccccc4)c1c23 [PDZ-17, 2-[2-(Piperidinamino)ethyl]-6-(2-benzylaminoethylamino)-2,7-dihydro-3H-dibenzo [de,h]cynnoline-3,7-dione]	29.3	2.72e+07 M⁻¹	4.9					
1220 ± 142 nM	719 ± 27 nM	4800 ± 1330 nM	683 ± 17 nM	1710 ± 125 nM	7290 ± 280 nM	850 ± 93 nM				CN(C)CCn1nc2c3c(c(NCc4ccccc4)ccc3c1=O)C(=O)c1ccccc1-2 [PDZ-8, 2-[2-(Dimethylamino)ethyl]-6-(N-benzylamino)-2,7-dihydro-3H-dibenzo[de,h]cynnoline-3,7-dione]	6.7	1.7e+06 M⁻¹	1.2					
725 ± 121 nM	269 ± 41 nM	919 ± 89 nM	549 ± 85 nM	709 ± 163 nM	1760 ± 120 nM	509 ± 54 nM				CN(C)CCCn1nc2c3c(c(N)ccc3c1=O)C(=O)c1ccccc1-2 [PDZ-3, 2-[3-(Dimethylamino)propyl]-6-amino-2,7-dihydro-3H-dibenzo[de,h]cynnoline-3,7-dione]	3.4	7.1e+06 M⁻¹	1.9					
558 ± 129 nM	311 ± 54 nM	1180 ± 94 nM	427 ± 80 nM	1250 ± 206 nM	2100 ± 100 nM	574 ± 12 nM				CCCCNCCNc1ccc2c(=O)[nH]nc3c2c1C(=O)c1ccccc1-3 [PDZ-9, 6-(2-Butylaminoethylamino)-2,7-dihydro-3H-dibenzo[de,h]cynnoline-3,7-dione]	3.8	6e+06 M⁻¹	1.8					
538 ± 45 nM	382 ± 56 nM	1360 ± 135 nM	474 ± 76 nM	886 ± 170 nM	1690 ± 100 nM	677 ± 29 nM				Nc1ccc2c(=O)n(CCN3CCCCC3)nc3c2c1C(=O)c1ccccc1-3 [PDZ-5, 2-[2-(Piperidinamino)ethyl]-6-amino-2,7-dihydro-3H-dibenzo[de,h]-cynnoline-3,7-dione]	3.6	7.5e+06 M⁻¹	1.8					

Reference: patent US9096536B2, “Asymmetrically substituted anthrapyridazone derivatives as cytostatics” (BS-154 S.P. ZO.O., priority 2011, dated 2015)
